Tests used:
[1] = tested on: HBCx-41 in vitro cultured dissociated cells; test: In vitro treatment of ex vivo cultured dissociated cells with anti-cancer drugs, WST-1 viability; format: cell-based, human; conditions: HBCx-41 dissociated cells, incremental concentrations, 72 h incubation
Experimental: In vitro treatments with anti-cancer drugs were performed in flat bottomed 96 well microplates. Equal number of viable cells (40 000) were distributed in each well and allowed for attachment for 3 days. […] After 72 h incubation in presence or absence of compounds, WST-1 (based on the cleavage of the tetrazolium salt by respiratory mitochondrial enzyme, Roche diagnostic) was added and incubated following manufacturer instructions. Optic density was read on a microplate reader at 450 nm. A sigmoid analytical curve gave the 50% inhibitory concentration (IC50).

line coming from HBCx-4A [2] = test: Everolimus dose response kinetic, WST (OD 450 nm); format: cell-based, human
Experimental: (§1) FIG. 17A to 17H presents the in vitro effect of everolimus on a line coming from HBCx-4A and put on plastic in function of time.
FIG. 17A: everolimus dose response kinetic
from top to bottom: no treatment (nott), black circle: 0.001 μM, white square: 0.1 μM, black triangle: 10 μM, bottom white square: 50 μM.
At 10 μM, the dose of everolimus is a cytotoxic dose. • x-axis: time in hours • y-axis: WST (OD 450 nm)

line coming from HBCx-4A [3] = test: RBD expression after in vitro everolimus (MESF, flow cytometry); format: cell-based, human; conditions: 0, 1, 100, 1000 nM; 6, 24, 72 h
Experimental: as §1
FIGS. 17B and 17C: 6 hours after everolimus.
FIGS. 17D and 17E: 24 hours after everolimus.
FIGS. 17F to 17H: 72 hours after everolimus. […]
High sensitivity is a challenge in flow cytometry. […] To visualize thin variation of expression level in multiple channel protocol, we need one unique unit, as fluorescence arbitrary units read on the same cytometer from two different fluorophores in their own channel cannot be confronted. Molecule of Equivalent Soluble Fluorochrome (MESF) is given by regression of arbitrary fluorescence measured versus standardisation beads coated with known amounts of same fluorochrome used in cells staining (AF647 and AF488 MESF quantum beads, BangsLab) acting as intra- and interexperiments calibrator. Measured fluorescence depends on lasers power, photomultiplicator tube settings, pH of staining medium. Fluorescence measured is proportional to the number of fluorochromes linked to the antibody used, itself correlated to the number of antibody bound to specific sites. […] For RBDs, quantification of non-specific signal was determined using secondary conjugated antibody alone.

[4] = tested on: breast tumor xenograft (HBCx-3); test: Everolimus treatment in breast tumor xenograft, RBD expression; format: in vivo, mouse; conditions: HBCx-3, 2.5 mg/kg i.p.
Experimental: FIG. 12 presents the effect of an everolimus treatment (2.5 mg/kg, i.p.—intraperotoneal) in a model of breast tumor xenograft (HBCx-3) known to be responsive to everolimus treatment at short times.
Mice of example 1 have been used.
Four RBDs are studied: • Circle: Xeno.RBD • Triangle: Ampho.RBD • Diamond: FeLVC.RBD • Square: RD114.RBD
The human breast cancer specimens were obtained with informed consent from the patients undergoing surgery. Fresh tumor fragments were grafted into the interscapular fat pad of 8-12 week old female Swiss nude mice, under avertin anaesthesia. Mice were maintained in specific pathogen-free animal housing (Institut Curie, Paris, France) and received estrogen (17 mg/ml) diluted in drinking water. Xenografts appeared at the graft site 2 to 8 months after initial transplantation. They were subsequently transplanted from mouse to mouse and formally established since third in vivo passage (Marangoni, Elisabetta A new model of patient tumor-derived breast cancer xenografts for preclinical assays Clin Cancer Res. 2007 Jul. 1; 13(13):3989-98). All the experiments were performed in accordance with the UKCCCR guidelines about animal ethics in neoplasia research (British Journal of Cancer (2010) 102, 1555-1577). Present experiments were all performed in well-established tumor models and required a minimal tumor size of 600 mm^3 to collect enough cellular material. In all cases, particular attention through careful clinical examination has been paid to ensure that the recipient mice remained in a general good health to avoid as far as possible necrotic tumors. All tumors were aseptically excised from ethically sacrificed mice with autoclaved surgical material. NEDB and culture media w/o FCS are both equivalent for a short period before processing.
(§2) For metabolite transporters labelling, 200 000 to 500 000 viable cells were incubated at 37° C. in RBD premix consisting in 3 μl of a RBD mouse Fc tagged plus 3 μl of a RBD rabbit Fc tagged diluted in 50 μl of CO2 independent medium and washed once before secondary staining with fluorescent conjugated antibodies against mouse (goat anti-mouse AF488, Cell Signalling Technology) and rabbit (goat anti-rabbit AF647, Cell Signalling Technology). Rat anti-mouse Pan H-2 added in a third step allowed for the discrimination between human and mouse cells.

[5] = tested on: breast tumor xenograft (HBCx-3); conditions: HBCx-3, short times; cited from earlier work
line coming from HBCx-4A [6] = test: Cisplatin dose response kinetic, cell viability (OD 450 nm); format: cell-based, human; conditions: HBCx-4A line on plastic
Experimental: FIG. 16A: cisplatine dose response kinetic
from top to bottom: white circle: no treatment (no tt), white square: 35 μM, white triangle (top point): 45 μM, white triangle (bottom point): 55 μM, white diamond: 65 μM, black circle: […]

line coming from HBCx-4A [7] = test: RBD expression after in vitro cisplatin (MFI, flow cytometry); format: cell-based, human
Experimental: FIG. 16B: PERV-A.RBD • x-axis: time in hours • y-axis: MFI (mean of fluorescent intensity)
as §2

[8] = tested on: breast tumor xenograft (HBCx-4A, HBCx-16, HBCx-8, HBCx-17); test: Cisplatin treatment in four models of breast tumor xenograft, RBD expression; format: in vivo, mouse
Excerpt: The four models are the followings: HBCx-4A (non-responsive), HBCx-16 (responsive), HBCx-8 (responsive), HBCx-17 (responsive). […] Left histograms (FeLVC.RBD): from left to right HBCx-4A, HBCx-16, HBCx-8, HBCx-17. Right histograms (BLV.RBD): from left to right HBCx-4A, HBCx-16, HBCx-8, HBCx-17.

PiT1 = target: T1, PiT1 (human, UniProt Q8WUM9 1-679); test: flow cytometry, RBD-Fc labelling of viable human breast cancer xenograft cells (HBCx-3, -4A, -8, -24, -30), read out in MESF
T1 construct: whole, on cells
T1 sequence: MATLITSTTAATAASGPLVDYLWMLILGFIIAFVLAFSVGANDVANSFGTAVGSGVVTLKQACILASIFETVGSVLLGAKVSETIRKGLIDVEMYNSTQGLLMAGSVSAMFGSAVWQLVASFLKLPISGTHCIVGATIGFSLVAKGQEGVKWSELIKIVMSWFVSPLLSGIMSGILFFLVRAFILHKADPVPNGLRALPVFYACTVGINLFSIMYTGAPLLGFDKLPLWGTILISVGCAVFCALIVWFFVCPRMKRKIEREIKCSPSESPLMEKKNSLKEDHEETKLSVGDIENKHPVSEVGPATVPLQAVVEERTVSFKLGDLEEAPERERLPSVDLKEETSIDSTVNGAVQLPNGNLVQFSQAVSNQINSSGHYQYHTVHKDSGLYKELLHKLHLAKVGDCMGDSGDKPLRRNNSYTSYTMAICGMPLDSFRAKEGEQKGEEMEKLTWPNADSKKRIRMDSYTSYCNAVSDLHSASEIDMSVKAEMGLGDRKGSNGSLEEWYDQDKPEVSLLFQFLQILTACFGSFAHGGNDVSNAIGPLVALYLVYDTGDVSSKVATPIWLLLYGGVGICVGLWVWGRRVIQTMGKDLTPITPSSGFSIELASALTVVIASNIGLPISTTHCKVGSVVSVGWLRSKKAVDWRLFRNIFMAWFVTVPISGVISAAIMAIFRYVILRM

Glut1 = target: T2, Glut1 (human, UniProt P11166 1-492); test: as above
T2 construct: whole, on cells; also called glucose transporter GLUT-1
T2 sequence: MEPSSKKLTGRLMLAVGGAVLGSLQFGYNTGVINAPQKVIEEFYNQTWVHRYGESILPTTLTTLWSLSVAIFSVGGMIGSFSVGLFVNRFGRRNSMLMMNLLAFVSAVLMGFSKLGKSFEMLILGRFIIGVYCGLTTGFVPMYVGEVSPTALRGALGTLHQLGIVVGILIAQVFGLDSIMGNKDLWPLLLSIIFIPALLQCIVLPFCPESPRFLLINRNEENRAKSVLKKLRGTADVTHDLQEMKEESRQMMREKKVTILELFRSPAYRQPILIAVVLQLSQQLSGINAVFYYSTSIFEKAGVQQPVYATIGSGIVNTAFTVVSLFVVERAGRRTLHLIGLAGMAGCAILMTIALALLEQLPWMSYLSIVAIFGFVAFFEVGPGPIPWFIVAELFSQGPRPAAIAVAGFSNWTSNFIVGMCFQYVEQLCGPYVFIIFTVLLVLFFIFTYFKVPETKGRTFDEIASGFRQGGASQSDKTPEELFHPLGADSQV

[9] = everolimus, HBCx-4A line on plastic
[10] = 24 and 48 h, both doses (50 and 100 μM)

In the case of `CC(=O)O[C@@]12CO[C@@H]1C[C@H](O)[C@@]1(C)C(=O)[C@H](O)C3=C(C)[C@@H](OC(=O)[C@H](O)[C@@H](NC(=O)OC(C)(C)C)c4ccccc4)C[C@@](O)([C@@H](OC(=O)c4ccccc4)[C@H]21)C3(C)C` [docetaxel, Docetaxel], the “toxicity (cell viability %)” value [1] is reported as “dose dependent toxicity”.

With `CO[C@H]1C[C@@H]2CC[C@@H](C)[C@@](O)(O2)C(=O)C(=O)N2CCCC[C@H]2C(=O)O[C@H]([C@H](C)C[C@@H]2CC[C@@H](OCCO)[C@H](OC)C2)CC(=O)[C@H](C)/C=C(\C)[C@@H](O)[C@@H](OC)C(=O)[C@H](C)C[C@H](C)/C=C/C=C/C=C/1C` [everolimus] the “effect on the line at 0.001 μM” value (line coming from HBCx-4A [2]; everolimus 0.001 μM) was “proliferation of the line”, the cytostatic dose (line coming from HBCx-4A [2]; [9]) was 0.1 µM and the cytotoxic dose (line coming from HBCx-4A [2]; [9]) was 10 µM. For the same molecule, the “response of RBDs (MESF)” value (line coming from HBCx-4A [3]) was “time and dose dependant”, the “variation of Ampho.RBD expression” value [4] was “vary later” and the “variation of FeLVC.RBD expression” value [4] was “vary at the beginning of the treatment”. The “variation of RD114.RBD expression” value [4] was “higher than the one of Ampho”, the “variation of Xeno.RBD expression” value [4] was “vary at the beginning of the treatment” and the “expression of RBDs with the treatment” value ([4]; Xeno, Ampho, FeLVC, RD114 RBDs) was “varies significantly”. The “response of the model to treatment” value [5] was “responsive”.

For `N.N.[Cl][Pt][Cl]` [cisplatin, Cisplatin], the “toxicity (cell viability %)” value [1] was “dose dependent toxicity”, the cytostatic dose (line coming from HBCx-4A [6]) was 55 µM and the “AmphoMLV.RBD expression at 100 μM compared with 50 μM” value (line coming from HBCx-4A [7]; 100 μM vs 50 μM) was “higher than at 50 μM”. The “RD114.RBD expression at 100 μM compared with 50 μM” value (line coming from HBCx-4A [7]; 100 μM vs 50 μM) was “higher than at 50 μM”, the “expression of AmphoMLV.RBD (MFI)” value (line coming from HBCx-4A [7]; [10]) was “increased” and the “expression of RD114.RBD (MFI)” value (line coming from HBCx-4A [7]; [10]) was “increased”. The “expression of PERV-A.RBD (MFI)” value (line coming from HBCx-4A [7]; 48 h, both doses (50 and 100 μM)) was “increased”, the “response of the model to treatment” value ([8]; HBCx-4A, 6 mg/kg i.p.) was “non-responsive” and the “response of the model to treatment” value ([8]; HBCx-8, 6 mg/kg i.p.) was “responsive”. The “response of the model to treatment” value ([8]; HBCx-16, 6 mg/kg i.p.) was “responsive”, the “response of the model to treatment” value ([8]; HBCx-17, 6 mg/kg i.p.) was “responsive” and the “expression of FeLVC.RBD” value ([8]; non responsive model (HBCx-4A), 72 h post treatment, 6 mg/kg i.p.) was “increase”. For the same molecule, the “expression of BLV.RBD” value ([8]; responsive and non responsive models, 72 h post treatment, 6 mg/kg i.p.) was “no difference” and the “expression of FeLVC.RBD” value ([8]; responsive model HBCx-16, 72 h post treatment, 6 mg/kg i.p.) was “decrease”.

B1: Ko.RBD.mFC immunoadhesin (KoRV SU receptor binding domain fused to mouse IgG Fc) (Fc fusion)
chain: NQQHNNPHQPMTLTWQVLSQTGSVVWEKKAVEPPWTWWPSLEPDVCALVAGLESWDIPELTASASQQARPPDSNYEHAYNQITWGTLGCSYPRARTRIARSQFYVCPRDGRSLSEARRCGGLESLYCKEWGCETAGTAYWQPRSSWDLITVGQGHPTGTCERTGWCNPLKIEFTEPGKRFRNWLQGRTWGLRFYVTGHPGVQLTIRLVITSPPPVVVG
notes: also called KoRV.RBD-Mfc; KoRV.RBD.MFC; not shown: mouse IgG Fc fragment
B1: binds (PiT1).

B2: H2.RBD.mFC immunoadhesin (HTLV-2 SU receptor binding domain fused to mouse IgG Fc) (Fc fusion)
chain: QQSRCTLTVGISSYHSSPCSPTQPVCTWNLDLNSLTTDQRLHPPCPNLITYSGFHKTYSLYLFPHWIKKPNRQGLGYYSPSYNDPCSLQCPYLGCQSWTCPYTGPVSSPSWKFHSDVNFTQEVSQVSLRLHFSKCGSSMTLLVDAPGYDPLWFITSEPTQ
notes: also called HTLV-2.RBD-Mfc; RBD derived from HTLV-2; not shown: mouse IgG Fc fragment
B2: binds (Glut1).
